Assay results taken from article PMC6344423, “Opposing Actions of Adrenocorticotropic Hormone and Glucocorticoids on UCP1-Mediated Respiration in Brown Adipocytes” (Frontiers in Physiology, 2019).
Blank lines part the entries; values can stand above or below the molecule they belong to. Ends that are not written are not given here.

Legend:
release of FFAs = conditions: lipolysis as criterion of potency; ref Draper et al., 1973; cited from earlier work
Text: The heptapeptide sequence, Met-Glu-His-Phe-Arg-Trp-Gly, is common to all the adrenocorticotropic (ACTH), melanotropic (MSH), and lipotropic (LPH) hormones.

[1] = tested on: Ucp1 mRNA in primary brown adipocytes; test: Ucp1 gene expression analysis (qRT-PCR), brown adipocytes; type: cell-based, mouse; conditions: for Ucp1 mRNA expression, ACTH heptapeptide fragments: normalized to Gtf2b, n = 4, Figures 4C,F
Experimental: (§1) Total RNA was isolated using Trisure (Bioline) and purified with SV total RNA Isolation System (Promega). Reverse transcriptase reactions were performed using SensiFAST cDNA Synthesis Kit (Bioline). Quantitative real-time PCR (qRT-PCR) was performed with SYBR green fluorescent dye in 384-well format using LightCycler 480 (Roche). General Transcription Factor IIB (Gtf2b) served as an internal control. To be able to calculate relative gene expression levels of samples, standard reactions containing serial diluted pooled cDNA of all samples (Pure, 1:2, 1:4, 1:8, 1:16, 1:32 and 1:64) as a template were used to establish a standard curve. The RNA abundance of Ucp1 gene was normalized to the housekeeping gene Gtf2b. The following primers were used: […]

primary brown adipocytes = test: Microplate-based respirometry (XF96), UCP1-mediated uncoupled respiration; type: cell-based, mouse; conditions: for Stimulated respiration (fold increase of basal leak), ACTH heptapeptide fragments: fragments 1 μM, n = 4, Figures 4A,B,D,E; for Stimulated respiration (UCP1-dependent uncoupled respiration) as fold increase of basal leak respiration, GsPCR ligand screen: primary brown adipocytes (129S6 mice), acute addition after oligomycin 5 μM, medium with 1–2% fatty acid free BSA, 37°C, n = 5, Figures 1B,C
Experimental: Oxygen consumption of primary brown adipocytes was measured at 37°C using microplate-based respirometry (XF96 extracellular flux analyzer, Seahorse Bioscience) as described previously ([Li et al., 2014b]) following the subsequent protocol at day 7 of differentiation. Prior to the respiration measurement, primary cells were washed with warmed, unbuffered assay medium (DMEM basal medium supplemented with 25 mM glucose, 31 mM NaCl, 2 mM GlutaMax and 15 mg/l phenol red, pH 7.4) (basal assay medium). Subsequent to the medium replacement with basal assay medium containing 1–2% essentially fatty acid free bovine serum albumin (BSA), cells were incubated at 37°C in a CO2-free incubator for 1 h. Assay reagents were loaded into the drug injections ports of the sensor cartridges at 10X in basal assay medium (no BSA). After assessment of basal oxygen consumption in untreated cells oligomycin (5 μM) was injected to inhibit coupled respiration and to determine basal leak respiration. Next, effector was added to investigate UCP1-dependant uncoupled respiration. By the addition of FCCP (1 μM) maximal respiratory capacity was determined. Lastly, non-mitochondrial oxygen consumption was assessed by blocking mitochondrial respiration with antimycin A (5 μM). For some experiments, cells were pretreated for 1 h with 50 μM H89 (PKA inhibitor), 1–100 μM propranolol (β-adrenergic receptor antagonist), 40 μM Atglistatin (ATGL inhibitor) and 40 μM Hi76-0079 (HSL inhibitor) 1 h prior to the measurement. Oxygen consumption rates were automatically calculated by the Seahorse XF-96 software. Each experiment was repeated at least three times with similar results and five to eight replicate wells for every condition in each independent experiment. Results are predominately expressed as stimulated respiration which is calculated as fold increase of basal leak.
In our first screen, we tested whether these GsPCR ligands can activate oxygen consumption acutely in brown adipocytes. UCP1-mediated uncoupled respiration was quantified in cultured adherent intact primary brown adipocytes, according to a protocol established in our lab ([Li et al., 2014b]). After recording basal respiration and the fraction of coupled and uncoupled respiration, UCP1-dependent respiration was measured. Finally, maximal respiratory capacity and non-mitochondrial oxygen consumption were assessed by adding the uncoupling agent carbonyl cyanide 4-(trifluoromethoxy) phenylhydrazone (FCCP) and antimycin A was added to block the electron transport chain, respectively. All respiration assays were performed in the presence of BSA to buffer free fatty acid (FFA) levels in the respiration medium.

[2] = tested on: Ucp1 gene expression in primary brown adipocytes of Ucp1^ki/ki mice; test: Luciferase assay, FLUC activity as surrogate for Ucp1 expression; type: cell-based, mouse; conditions: overnight stimulation, normalized to total protein content, n = 3, Figure 1D
Experimental: After overnight stimulation of primary brown adipocytes of Ucp1^ki/ki mice luciferase activity was assayed using a commercial kit system (Luciferase Assay System Freezer Pack E4030, Promega GmbH). Primary cells were lysed in 1x reporter lysis buffer by shaking for 20 min at room temperature. 10 μl lysate was mixed with 50 μl luciferase assay substrate solution, and the mixture was measured by FB12 in a luminometer (Single Tube Luminometer, Titertek-Berthold GmbH). Bioluminescence readouts were normalized to total protein content.
We then measured FLUC activity in primary brown adipocytes from Ucp1^ki/ki reporter gene mice to determine the effect of the GsPCR ligands on Ucp1 gene expression in response to overnight stimulation. As the expression of Fluc in these cells is driven by Ucp1promoter, FLUC activity served as a surrogate for Ucp1 expression.

[3] = tested on: cytosolic cAMP in primary brown adipocytes; test: Quantification of cellular cAMP (cAMP-Glo Assay); type: cell-based, mouse
Experimental: Changes in cytosolic cAMP concentrations were determined in primary brown adipocytes in response to ACTH- or isoproterenol stimulation using cAMP-Glo Assay (Promega) following the manufacturer’s instructions.

[4] = tested on: melanocortin 2 receptor (Mc2r) expression; test: Mc2r gene expression (qRT-PCR) in primary brown adipocytes; type: cell-based, mouse; conditions: 5 μM Dexa, 0–4 h, n = 4
Experimental: as §1

[5] = tested on: β3-adrenergic receptor (Adrb3) expression; test: Adrb3 gene expression (qRT-PCR) in primary brown adipocytes; type: cell-based, mouse; conditions: 5 μM Dexa, 0–4 h, n = 4
Experimental: as §1

[6] = tested on: Ucp1 mRNA and UCP1 protein; set-up: method as in Soumano et al., 2000; van den Beukel et al., 2014; conditions: ref Soumano et al., 2000; van den Beukel et al., 2014; cited from earlier work
Text: To address the physiological role of ACTH in brown fat thermogenesis we analyzed the expression of its receptor in BAT of mice in response to cold exposure. […] Basically, ACTH triggers the release of glucocorticoids from the cortex of the adrenal gland. Circulating glucocorticoids exert negative feedback control on the […] ...

[7] = 5 μM Dexa pretreatment, n = 4, Figure 5G

Molecule: MRHFRWG [synACTH(4-10), mutant ACTH fragment, synthetic analog of ACTH(4-10) with amino acid exchange from Glu to Arg]
Activity on the release of FFAs compared to the natural ACTH core sequence (release of FFAs): fourfold increased activity on the release of FFAs
Ucp1 mRNA expression, ACTH heptapeptide fragments [1]: comparable to that of the natural heptapeptide
Stimulated respiration (fold increase of basal leak), ACTH heptapeptide fragments (primary brown adipocytes): mildly increased respiration

Molecule: Met-Glu-His-Phe-Arg-Trp-Gly [ACTH(4-10)]
Ucp1 mRNA expression, ACTH heptapeptide fragments [1]: significantly increased Ucp1 mRNA expression
Stimulated respiration (fold increase of basal leak), ACTH heptapeptide fragments (primary brown adipocytes): no impact on respiration

Molecule: C[C@@H]1C[C@H]2[C@@H]3CCC4=CC(=O)C=C[C@]4(C)[C@@]3(F)[C@@H](O)C[C@]2(C)[C@@]1(O)C(=O)CO [Dexa, dexamethasone]
Effect of Dexa on ACTH induced rise in cellular cAMP [3, 7]: no such effect was observed for ACTH
Effect of Dexa on ISO induced rise in cellular cAMP [3, 7]: attenuated the ISO induced rise in cellular cAMP levels
Effect of Dexa on Ucp1 expression ([1]; 4-h treatment, 5 μM Dexa, n = 4): no significant effect on Ucp1 expression
Effect of Dexa on expression of the melanocortin 2 receptor [4]: not a consequence of reduced or increased expression
Effect of Dexa pretreatment on ACTH-induced respiration (primary brown adipocytes; 5 μM Dexa, 0–4 h, n = 4, Figure 5C): unaffected
Effect of Dexa pretreatment on ISO-stimulated respiration (primary brown adipocytes; 5 μM Dexa, 0–4 h, with increasing exposure time, n = 4, Figure 5C): attenuated ISO-stimulated respiration
Effect of Dexa on respiration, one-hour pre-treatment or acute stimulation (primary brown adipocytes; 5 μM Dexa, n = 4, Figure 5B): had no effect on respiration
Effect of DEXA treatment on thermogenic response, 1 h (primary brown adipocytes; DEXA treatment for 1 h): had no effect
Effect of DEXA treatment on thermogenic response to ISO, 4 h (primary brown adipocytes; extended DEXA treatment for 4 h, compared with 2 h): more pronounced
Effect of DEXA treatment on thermogenic response to ISO, 2 h (primary brown adipocytes; two hours of DEXA treatment): significant downregulation of the thermogenic response to ISO
Effect of Dexa on expression of the β3-adrenergic receptor [5]: not a consequence of reduced or increased expression

Molecule: CC(C)NCC(O)COc1cccc2ccccc12 (stereo not drawn) [propranolol]
Effect of propranolol pre-treatment on ACTH stimulated respiration (primary brown adipocytes; 1 h pretreatment, 1–100 μM propranolol, ACTH 1 μM, n = 4, Figure 2B): did not attenuate ACTH stimulated respiration
Effect of propranolol pre-treatment on ISO stimulated respiration (primary brown adipocytes; 1 h pretreatment, 1–100 μM propranolol, ISO 0.5 μM, n = 4, Figure 2B): blocking the effect of ISO in a dose-dependent manner

Molecule: PACAP: pituitary adenylate cyclase-activating peptide
FLUC (luciferase) activity as surrogate for Ucp1 expression [2]: highest FLUC activities
Stimulated respiration (UCP1-dependent uncoupled respiration) as fold increase of basal leak respiration, GsPCR ligand screen (primary brown adipocytes): weakest effects on cellular respiration

Molecule: O=S(=O)(NCCNC/C=C/c1ccc(Br)cc1)c1cccc2cnccc12 [H89]
Effect of PKA inhibitor on ACTH-stimulated respiration (primary brown adipocytes; H89 50 μM, ACTH 1 μM, n = 4, Figure 2E): completely blocked the effect on respiration of ACTH

Molecule: C[C@]12C[C@H](O)[C@H]3[C@@H](CCC4=CC(=O)CC[C@@]43C)[C@@H]1CC[C@@H]2C(=O)CO [corticosterone]
Effect on Ucp1 mRNA and UCP1 protein in response to adrenergic stimulation and ACTH treatment [6]: reduces Ucp1 mRNA and UCP1 protein

Molecule: secretin: peptide ligand of the secretin receptor
FLUC (luciferase) activity as surrogate for Ucp1 expression [2]: highest FLUC activities
Stimulated respiration (UCP1-dependent uncoupled respiration) as fold increase of basal leak respiration, GsPCR ligand screen (primary brown adipocytes): most prominent induction of UCP1-dependant uncoupled respiration

Continued, in another order:

FLUC (luciferase) activity as surrogate for Ucp1 expression [2]: no effect on FLUC
Molecule: CCNC(=O)[C@H]1O[C@@H](n2cnc3c(N)nc(NCCc4ccc(CCC(=O)O)cc4)nc32)[C@H](O)[C@@H]1O [CGS21680]

FLUC (luciferase) activity as surrogate for Ucp1 expression [2]: highest FLUC activities
Molecule: PTH: parathyroid hormone, ligand of PTHR
Stimulated respiration (UCP1-dependent uncoupled respiration) as fold increase of basal leak respiration, GsPCR ligand screen (primary brown adipocytes): modest compared to ISO

FLUC (luciferase) activity as surrogate for Ucp1 expression [2]: only had minor effects
Molecule: adrenomedullin: ligand for calcitonin receptor-like receptor (CALCRL)

EC50 ([3]; Mus musculus, Adipocyte, 0.5 h, stimulation for 30 min, n = 3, non-linear regression, Figure 2D): 9.41 nM
Molecule: CC(C)NCC(O)c1ccc(O)c(O)c1 (stereo not drawn) [ISO, isoproterenol]

FLUC (luciferase) activity as surrogate for Ucp1 expression [2]: moderate rise in FLUC activity
Molecule: CCCCC[C@H](O)/C=C/[C@H]1[C@H](O)CC(=O)[C@@H]1C/C=C\CCCC(=O)O [PGE2, Prostaglandin E2]

FLUC (luciferase) activity as surrogate for Ucp1 expression [2]: moderate rise in FLUC activity
Molecule: α-MSH: α-melanocyte-stimulating hormone, melanocortin
Stimulated respiration (UCP1-dependent uncoupled respiration) as fold increase of basal leak respiration, GsPCR ligand screen (primary brown adipocytes): weakest effects on cellular respiration

FLUC (luciferase) activity as surrogate for Ucp1 expression [2]: no effect on FLUC
Molecule: thyroid hormone
